From ChEMBL document CHEMBL1201862, “PubChem BioAssay data set” (2004)
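Briefly, cells in 96-well plates were exposed to five compound concentrations for 48 h, and endpoints were estimated by linear interpolation. GI50 is the concentration that inhibits growth by half.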 Calls of active or inactive are those of the source. No stated cut-off is given here; in the data, active = GI50 up to about 1.1 µM and inactive = higher.

How the values were obtained:
Assay in all cases: DTP human tumour cell line panel, 48 h
KM12 = tested on: KM12
SF-539 = tested on: SF-539
EKVX = tested on: EKVX
SK-MEL-28 = tested on: SK-MEL-28
MOLT-4 = tested on: MOLT-4
LOX IMVI = tested on: LOX IMVI
HL-60 = tested on: HL-60
CCRF-CEM = tested on: CCRF-CEM
A549 = tested on: A549
DMS-114 = tested on: DMS-114
NCI-H522 = tested on: NCI-H522
HOP-18 = tested on: HOP-18
KM-20L2 = tested on: KM-20L2
LXFL 529 = tested on: LXFL 529
HOP-62 = tested on: HOP-62
SR = tested on: SR
UO-31 = tested on: UO-31
HOP-92 = tested on: HOP-92
SF-268 = tested on: SF-268
HCT-15 = tested on: HCT-15
RXF 393 = tested on: RXF 393
UACC-257 = tested on: UACC-257
SK-OV-3 = tested on: SK-OV-3
HCC 2998 = tested on: HCC 2998
SNB-78 = tested on: SNB-78
SW-620 = tested on: SW-620
786-0 = tested on: 786-0
SK-MEL-5 = tested on: SK-MEL-5
TK-10 = tested on: TK-10
Malme-3M = tested on: Malme-3M
SK-MEL-2 = tested on: SK-MEL-2
UACC-62 = tested on: UACC-62
K562 = tested on: K562
OVCAR-4 = tested on: OVCAR-4
M19-MEL = tested on: M19-MEL
CAKI-1 = tested on: CAKI-1
XF498 = tested on: XF498
SF-295 = tested on: SF-295
ACHN = tested on: ACHN
NCI-H23 = tested on: NCI-H23
OVCAR-8 = tested on: OVCAR-8
NCI-H460 = tested on: NCI-H460
U-251 = tested on: U-251
SNB-19 = tested on: SNB-19
IGROV-1 = tested on: IGROV-1
COLO 205 = tested on: COLO 205
DLD-1 = tested on: DLD-1
OVCAR-3 = tested on: OVCAR-3
HT-29 = tested on: HT-29
DMS-273 = tested on: DMS-273
HCT-116 = tested on: HCT-116
A498 = tested on: A498
SN12C = tested on: SN12C
OVCAR-5 = tested on: OVCAR-5
SNB-75 = tested on: SNB-75
NCI-H226 = tested on: NCI-H226
M14 = tested on: M14
RPMI-8226 = tested on: RPMI-8226

Cc1c[n+]2c3ccccc3c3ccccc3c2s1.[O-][Cl+3]([O-])([O-])[O-]
GI50 (KM12): 1.07 µM (active) | GI50 (SF-539): 4.59 µM (inactive) | GI50 (EKVX): 4.89 µM (inactive) | GI50 (SK-MEL-28): 2.25 µM (inactive) | GI50 (MOLT-4): 2.03 µM (inactive) | GI50 (LOX IMVI): 15.2 µM (inactive) | GI50 (HL-60): 14.2 µM (inactive) | GI50 (CCRF-CEM): 4.1 µM (inactive) | GI50 (A549): 4.01 µM (inactive) | GI50 (DMS-114): 2.61 µM (inactive) | GI50 (NCI-H522): 1.73 µM (inactive) | GI50 (HOP-18): 40.2 µM (inactive) | GI50 (KM-20L2): 1.33 µM (inactive) | GI50 (LXFL 529): 3.16 µM (inactive) | GI50 (HOP-62): 6.52 µM (inactive) | GI50 (SR): 3.33 µM (inactive) | GI50 (UO-31): 3.25 µM (inactive) | GI50 (HOP-92): 16.6 µM (inactive) | GI50 (SF-268): 0.697 µM (active) | GI50 (HCT-15): > 100 µM | GI50 (RXF 393): 0.043 µM (active) | GI50 (UACC-257): 4.26 µM (inactive) | GI50 (SK-OV-3): 10.7 µM (inactive) | GI50 (HCC 2998): 3.2 µM (inactive) | GI50 (SNB-78): 0.721 µM (active) | GI50 (SW-620): 5.4 µM (inactive) | GI50 (786-0): 3.37 µM (inactive) | GI50 (SK-MEL-5): 5.35 µM (inactive) | GI50 (TK-10): 1.39 µM (inactive) | GI50 (Malme-3M): 2.49 µM (inactive) | GI50 (SK-MEL-2): 12.4 µM (inactive) | GI50 (UACC-62): 14.1 µM (inactive) | GI50 (K562): 4.29 µM (inactive) | GI50 (OVCAR-4): 8.73 µM (inactive) | GI50 (M19-MEL): 4.2 µM (inactive) | GI50 (CAKI-1): 3.2 µM (inactive) | GI50 (XF498): 3.19 µM (inactive) | GI50 (SF-295): 5.97 µM (inactive) | GI50 (ACHN): 42.6 µM (inactive) | GI50 (NCI-H23): 0.422 µM (active) | GI50 (OVCAR-8): 3.3 µM (inactive) | GI50 (NCI-H460): 5.94 µM (inactive) | GI50 (U-251): 0.368 µM (active) | GI50 (SNB-19): 3.36 µM (inactive) | GI50 (IGROV-1): 29.4 µM (inactive) | GI50 (COLO 205): 7.89 µM (inactive) | GI50 (DLD-1): 12 µM (inactive) | GI50 (OVCAR-3): 0.787 µM (active) | GI50 (HT-29): 14.1 µM (inactive) | GI50 (DMS-273): 5.3 µM (inactive) | GI50 (HCT-116): 6.37 µM (inactive) | GI50 (A498): 55.6 µM (inactive) | GI50 (SN12C): 2.61 µM (inactive) | GI50 (OVCAR-5): 1.77 µM (inactive) | GI50 (SNB-75): 3.31 µM (inactive) | GI50 (NCI-H226): 0.536 µM (active) | GI50 (M14): 17.4 µM (inactive) | GI50 (RPMI-8226): 8.15 µM (inactive)

C[C@]12CCC3c4ccc(OC(=O)c5ccccc5)cc4CC[C@H]3C1CC[C@@H]2OC(=O)C12OC1CCC2=O (stereo not given in full)
GI50 (KM12): 6.93 µM (inactive) | GI50 (SF-539): 2.34 µM (inactive) | GI50 (EKVX): 6.61 µM (inactive) | GI50 (SK-MEL-28): 6.11 µM (inactive) | GI50 (MOLT-4): 2.32 µM (inactive) | GI50 (LOX IMVI): 3.33 µM (inactive) | GI50 (HL-60): 1.9 µM (inactive) | GI50 (CCRF-CEM): 0.959 µM (active) | GI50 (A549): 5.64 µM (inactive) | GI50 (DMS-114): 2.6 µM (inactive) | GI50 (NCI-H522): 2.31 µM (inactive) | GI50 (HOP-18): 5.71 µM (inactive) | GI50 (KM-20L2): 5.89 µM (inactive) | GI50 (LXFL 529): 1.91 µM (inactive) | GI50 (HOP-62): 6.21 µM (inactive) | GI50 (SR): 3.31 µM (inactive) | GI50 (UO-31): 5.75 µM (inactive) | GI50 (HOP-92): 19.7 µM (inactive) | GI50 (SF-268): 2.68 µM (inactive) | GI50 (HCT-15): 5.55 µM | GI50 (RXF 393): 2.41 µM (inactive) | GI50 (UACC-257): 5.81 µM (inactive) | GI50 (SK-OV-3): 15.8 µM (inactive) | GI50 (HCC 2998): 23.7 µM (inactive) | GI50 (SNB-78): 6.34 µM (inactive) | GI50 (SW-620): 2.64 µM (inactive) | GI50 (786-0): 2.67 µM (inactive) | GI50 (SK-MEL-5): 4.69 µM (inactive) | GI50 (TK-10): 18.7 µM (inactive) | GI50 (Malme-3M): 5.85 µM (inactive) | GI50 (SK-MEL-2): 7.94 µM (inactive) | GI50 (UACC-62): 15.6 µM (inactive) | GI50 (K562): 2.07 µM (inactive) | GI50 (OVCAR-4): 5.41 µM (inactive) | GI50 (M19-MEL): 5.96 µM (inactive) | GI50 (XF498): 5.82 µM (inactive) | GI50 (SF-295): 12.3 µM (inactive) | GI50 (ACHN): 5.27 µM (inactive) | GI50 (NCI-H23): 4.73 µM (inactive) | GI50 (OVCAR-8): 4.53 µM (inactive) | GI50 (NCI-H460): 4.26 µM (inactive) | GI50 (U-251): 2.8 µM (inactive) | GI50 (SNB-19): 20.5 µM (inactive) | GI50 (IGROV-1): 4.63 µM (inactive) | GI50 (COLO 205): 2.84 µM (inactive) | GI50 (DLD-1): 2.47 µM (inactive) | GI50 (OVCAR-3): 3.13 µM (inactive) | GI50 (HT-29): 3.34 µM (inactive) | GI50 (DMS-273): 5.01 µM (inactive) | GI50 (HCT-116): 3.03 µM (inactive) | GI50 (A498): 6.04 µM (inactive) | GI50 (SN12C): 5.9 µM (inactive) | GI50 (OVCAR-5): 8.38 µM (inactive) | GI50 (SNB-75): 13.7 µM (inactive) | GI50 (NCI-H226): 14.9 µM (inactive) | GI50 (M14): 5.79 µM (inactive) | GI50 (RPMI-8226): 4.23 µM (inactive)
